Where two headings read alike, the source gives them in different places.
Columns and labels:
TNF [1] = conditions: in vivo LPS-induced model; cited from earlier work
TNF [2] = conditions: Goebel et al. 2000; cited from earlier work
[3] = tested on: cultures enriched in astrocytes; conditions: added to in vitro cultures; cited from earlier work
[4] = tested on: Crohn's patients with fistulas; conditions: cited from earlier work
[5] = tested on: patients with Crohn's disease; conditions: cited from earlier work
CD patients = conditions: Kast 1998; cited from earlier work
BALB/c mice = experiment: LPS-induced shock model: survival and signs of endotoxemia after lethal LPS challenge; assay type: in vivo
Method: Male BALB/c mice were injected with 11, 33 or 100 mg/kg of bupropion or with placebo i.p. in saline 1 h before challenge with 600 μg of E. coli LPS (Sigma, St. Louis, Mo.) by i.p. route. Mice were sacrificed 90 min for detection of cytokines in the serum by sandwich ELISA. Values represent the means±SEM of 5 mice per group. * P<0.05.
BALB/c mice were injected intraperitoneally (i.p.) with bupropion or placebo 1 h prior to i.p. injection of LPS (600 ug/mouse).
Male, 6 weeks old BALB/c mice were used in LPS-induced shock experiments. All mice were raised and maintained at the animal facilities at the Goncalo Moniz Research Center-FIOCRUZ, and provided with rodent diet and water ad libitum. Animal numbers in experimental groups were the minimum necessary to permit statistical analysis. All animals were sacrificed under anaesthesia.
In some experiments, groups of mice received i.p. injection of propranolol (1 mg/Kg), SCH23390 (25 μg/kg) and sulpiride (25 mg/Kg) 1 h prior to injection of bupropion. […] To determine serum TNF, IL-1 beta and IL-10 levels, mice were sacrificed 90 min after injection of LPS and bled by axilar vein puncture. Levels of IFN-gamma and nitric oxide were assayed using sera of mice sacrificed 4 h after LPS injection. Platelet and leukocyte cell counts were performed using blood collected with EDTA after 4 h of LPS challenge, using an automated cell counter (ADVIA 60, Bayer).

TNF [6] = conditions: different experimental models; cited from earlier work

bromocryptine
TNF levels (TNF [1]): lowered TNF levels

CC(C)NCC(O)c1ccc(O)c(O)c1 (stereo not drawn) [isoproteronol]
TNF levels (TNF [2]): lower TNF levels
LPS-stimulated TNF production [3]: significantly blunted

Remicaid: new drug given early FDA approval for Crohn's patients with fistulas
patients with complete remission ([4]; another study): 48%
patients in whom half of the fistulas closed ([4]; one study): 68%

infliximab: monoclonal antibody acting against TNF-alpha, for moderate to severe Crohn's disease
patients in remission ([5]; four weeks after medication, placebo 4 percent): 33%
share of patients with a 50 percent reduction in fistula drainage ([5]; second study, active fistulas, three doses two weeks apart): two-thirds
share of the patients' fistulas closed ([5]; second study, active fistulas): over half

NCCc1ccc(O)c(O)c1 [dopamine]
LPS-stimulated TNF production [3]: significantly blunted

NNCCc1ccccc1 [phenelzine]
CD remission (CD patients): CD remission

CCN1CCCC1CNC(=O)c1cc(S(N)(=O)=O)ccc1OC (stereo not drawn) [sulpiride]
effect of antagonist on bupropion mediated survival / protection (BALB/c mice; antagonist i.p. 1 h prior to bupropion (propranolol 1 mg/Kg, SCH23390 25 μg/kg, sulpiride 25 mg/Kg), lethal LPS): did not interfere
protection from lethal LPS challenge by the antagonist alone (BALB/c mice; without bupropion, propranolol 1 mg/Kg, SCH23390 25 μg/kg, sulpiride 25 mg/Kg i.p.): partial protection
TNF levels (TNF [1]): lowered TNF levels

COc1ccc(C2CNC(=O)C2)cc1OC1CCCC1 (stereo not drawn) [rolipram]
TNF levels (TNF [6]): lower TNF levels

NC[C@H](O)c1ccc(O)c(O)c1 [noradrenaline]
LPS-stimulated TNF production [3]: significantly blunted

Reference: patent publication US20060173080A1, “Methods of modulating TNF using bupropion” (The Regents of the University of California, priority 2002, published 2006)
